Reference: ChEMBL document CHEMBL5518188, “Discovery of 4-amino-1,6-dihydro-7H-pyrrolo[2,3-d]pyridazin-7-one derivatives as potential receptor-interacting serine/threonine-protein kinase 1 (RIPK1) inhibitors” (Eur J Med Chem, 2024)
The source made the active and inactive calls. The calls are words filed in the database; no cut-off is given here.

Legend:
[1] = target: Vascular endothelial growth factor receptor 3 (Homo sapiens) (UniProt P35916); assay: Inhibition of FLT4 (unknown origin)
L929 = assay: Anti-necroptosis activity against TSZ-induced mouse L929 cells; type: functional, cell-based
HT-29 [2] = assay: Anti-necroptosis activity against TSZ-induced human HT-29 cells by microscopic analysis; type: functional, cell-based
[3] = target: Receptor-interacting serine/threonine-protein kinase 3 (Homo sapiens, UniProt Q9Y572); details: HT-29, dose 300.0 nM, time <= 6.0 hrs, TDE = time-dependent effect
Description: Inhibition of RIPK3 phosphorylation in TSZ-induced human HT-29 cells at 300 nM by Western blot analysis

[4] = target: Vascular endothelial growth factor receptor 1 (Homo sapiens) (UniProt P17948); assay: Inhibition of FLT1 (unknown origin)
[5] = Oral bioavailability in BALB/c mouse at 10 mg/kg; type: ADME, organism-based; details: BALB/c, in vivo
[6] = target: Tyrosine-protein kinase Lyn (Homo sapiens) (UniProt P07948); assay: Inhibition of LYN (unknown origin)
Mus musculus [7] = assay: In vivo anti-necrotptic activity in SIRS mouse model assessed as protection from body temperature loss at 10 mg/kg, po measured upto 6 hrs; type: functional, organism-based
[8] = Tmax in BALB/c mouse at 10 mg/kg, po; type: ADME, organism-based; details: in vivo
[9] = Tmax in BALB/c mouse at 10 mg/kg, iv; type: ADME, organism-based; details: in vivo
[10] = target: T1, Mixed lineage kinase domain-like protein (Homo sapiens) (UniProt Q8NB16); details: HT-29, dose 300.0 nM, time <= 6.0 hrs, TDE = time-dependent effect
T1 sequence (whole entry): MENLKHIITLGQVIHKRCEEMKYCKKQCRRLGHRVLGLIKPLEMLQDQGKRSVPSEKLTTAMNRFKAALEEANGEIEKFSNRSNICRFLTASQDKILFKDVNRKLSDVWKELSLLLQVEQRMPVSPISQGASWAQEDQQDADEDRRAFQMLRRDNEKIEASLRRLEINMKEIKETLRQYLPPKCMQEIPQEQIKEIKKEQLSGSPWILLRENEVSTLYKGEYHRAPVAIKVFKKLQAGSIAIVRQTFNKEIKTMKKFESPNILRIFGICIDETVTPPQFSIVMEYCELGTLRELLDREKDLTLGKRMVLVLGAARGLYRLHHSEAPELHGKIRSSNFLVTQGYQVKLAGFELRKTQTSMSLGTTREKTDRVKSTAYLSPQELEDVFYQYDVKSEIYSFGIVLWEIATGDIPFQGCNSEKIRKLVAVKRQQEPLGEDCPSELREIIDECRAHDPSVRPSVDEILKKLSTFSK
Description: Inhibition of MLKL phosphorylation in TSZ-induced human HT-29 cells at 300 nM by Western blot analysis

[11] = AUC (0 to t) in BALB/c mouse at 10 mg/kg, po; type: ADME, organism-based; details: BALB/c, in vivo
[12] = target: NT-3 growth factor receptor (Homo sapiens) (UniProt Q16288); assay: Inhibition of TRKC (unknown origin)
[13] = target: High affinity nerve growth factor receptor (Homo sapiens) (UniProt P04629); assay: Inhibition of TRKA (unknown origin)
[14] = target: T2, Discoidin domain-containing receptor 2 (Homo sapiens) (UniProt Q16832); assay: Inhibition of DDR2 (unknown origin)
T2 sequence (whole entry): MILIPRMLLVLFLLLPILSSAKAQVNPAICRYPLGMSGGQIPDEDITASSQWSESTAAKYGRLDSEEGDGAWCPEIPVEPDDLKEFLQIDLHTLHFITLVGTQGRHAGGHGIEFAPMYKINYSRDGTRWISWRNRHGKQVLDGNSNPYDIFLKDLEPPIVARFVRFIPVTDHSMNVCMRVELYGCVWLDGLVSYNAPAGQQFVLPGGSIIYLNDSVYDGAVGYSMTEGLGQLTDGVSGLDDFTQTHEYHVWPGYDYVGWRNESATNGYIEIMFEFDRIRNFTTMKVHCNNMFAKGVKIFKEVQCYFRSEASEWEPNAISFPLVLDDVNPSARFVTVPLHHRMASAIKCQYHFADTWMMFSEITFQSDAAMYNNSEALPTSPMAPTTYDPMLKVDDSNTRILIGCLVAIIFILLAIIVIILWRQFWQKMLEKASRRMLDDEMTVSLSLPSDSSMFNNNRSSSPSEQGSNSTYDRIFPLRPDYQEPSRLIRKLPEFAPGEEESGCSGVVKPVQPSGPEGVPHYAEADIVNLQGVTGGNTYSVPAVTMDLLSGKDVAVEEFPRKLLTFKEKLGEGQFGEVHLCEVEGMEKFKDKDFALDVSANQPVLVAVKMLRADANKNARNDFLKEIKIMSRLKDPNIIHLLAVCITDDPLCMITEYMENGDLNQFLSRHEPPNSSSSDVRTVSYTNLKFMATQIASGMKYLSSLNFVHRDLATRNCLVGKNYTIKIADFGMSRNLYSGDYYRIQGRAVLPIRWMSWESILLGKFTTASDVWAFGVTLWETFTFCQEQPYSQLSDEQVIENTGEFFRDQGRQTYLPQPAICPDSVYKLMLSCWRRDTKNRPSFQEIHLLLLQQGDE

HT-29 [15] = assay: Anti-necroptosis activity against TSZ-induced human HT-29 cells; type: functional, cell-based
[16] = Apparent volume of distribution in BALB/c mouse at 10 mg/kg, iv; type: ADME, organism-based; details: in vivo, read-out: Vz
[17] = target: T1, Mixed lineage kinase domain-like protein (Homo sapiens); details: HT-29, dose 30.0 nM, time 6.0 hrs
[18] = Cmax in BALB/c mouse at 10 mg/kg, iv; type: ADME, organism-based; details: in vivo
[19] = Clearance in BALB/c mouse at 10 mg/kg, po; type: ADME, organism-based; details: BALB/c, in vivo
[20] = Half life in BALB/c mouse at 10 mg/kg, iv; type: ADME, organism-based; details: in vivo
[21] = target: Angiopoietin-1 receptor (Homo sapiens) (UniProt Q02763); assay: Inhibition of Tie2 (unknown origin)
Mus musculus [22] = assay: In vivo anti-necrotptic activity in po dosed SIRS mouse model assessed as reduction in IL-6 level measured at 4 hrs; type: functional, organism-based; details: dose 2.5-10 mg/kg

High affinity nerve growth factor receptor (Homo sapiens), sequence (P04629 33-796 limits assumed): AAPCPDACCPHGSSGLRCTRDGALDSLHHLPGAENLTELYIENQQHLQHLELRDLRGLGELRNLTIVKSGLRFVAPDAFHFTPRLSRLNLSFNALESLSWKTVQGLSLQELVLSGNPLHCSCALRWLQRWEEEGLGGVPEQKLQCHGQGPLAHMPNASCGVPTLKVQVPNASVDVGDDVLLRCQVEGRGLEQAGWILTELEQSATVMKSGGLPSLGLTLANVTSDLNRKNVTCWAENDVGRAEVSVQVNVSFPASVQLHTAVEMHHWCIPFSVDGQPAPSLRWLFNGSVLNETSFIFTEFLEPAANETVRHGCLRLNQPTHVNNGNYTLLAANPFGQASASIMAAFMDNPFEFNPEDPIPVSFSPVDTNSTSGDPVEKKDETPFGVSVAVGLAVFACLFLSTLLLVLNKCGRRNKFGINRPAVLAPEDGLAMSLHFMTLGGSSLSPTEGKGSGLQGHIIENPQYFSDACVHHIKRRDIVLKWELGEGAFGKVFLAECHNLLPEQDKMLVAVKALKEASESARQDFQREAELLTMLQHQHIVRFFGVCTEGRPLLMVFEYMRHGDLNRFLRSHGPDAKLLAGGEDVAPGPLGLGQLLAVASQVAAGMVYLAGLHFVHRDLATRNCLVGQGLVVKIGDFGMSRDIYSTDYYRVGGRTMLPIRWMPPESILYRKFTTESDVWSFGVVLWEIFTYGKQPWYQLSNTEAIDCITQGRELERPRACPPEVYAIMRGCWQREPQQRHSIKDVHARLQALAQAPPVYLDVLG
Vascular endothelial growth factor receptor 3 (Homo sapiens), sequence (P35916 whole entry): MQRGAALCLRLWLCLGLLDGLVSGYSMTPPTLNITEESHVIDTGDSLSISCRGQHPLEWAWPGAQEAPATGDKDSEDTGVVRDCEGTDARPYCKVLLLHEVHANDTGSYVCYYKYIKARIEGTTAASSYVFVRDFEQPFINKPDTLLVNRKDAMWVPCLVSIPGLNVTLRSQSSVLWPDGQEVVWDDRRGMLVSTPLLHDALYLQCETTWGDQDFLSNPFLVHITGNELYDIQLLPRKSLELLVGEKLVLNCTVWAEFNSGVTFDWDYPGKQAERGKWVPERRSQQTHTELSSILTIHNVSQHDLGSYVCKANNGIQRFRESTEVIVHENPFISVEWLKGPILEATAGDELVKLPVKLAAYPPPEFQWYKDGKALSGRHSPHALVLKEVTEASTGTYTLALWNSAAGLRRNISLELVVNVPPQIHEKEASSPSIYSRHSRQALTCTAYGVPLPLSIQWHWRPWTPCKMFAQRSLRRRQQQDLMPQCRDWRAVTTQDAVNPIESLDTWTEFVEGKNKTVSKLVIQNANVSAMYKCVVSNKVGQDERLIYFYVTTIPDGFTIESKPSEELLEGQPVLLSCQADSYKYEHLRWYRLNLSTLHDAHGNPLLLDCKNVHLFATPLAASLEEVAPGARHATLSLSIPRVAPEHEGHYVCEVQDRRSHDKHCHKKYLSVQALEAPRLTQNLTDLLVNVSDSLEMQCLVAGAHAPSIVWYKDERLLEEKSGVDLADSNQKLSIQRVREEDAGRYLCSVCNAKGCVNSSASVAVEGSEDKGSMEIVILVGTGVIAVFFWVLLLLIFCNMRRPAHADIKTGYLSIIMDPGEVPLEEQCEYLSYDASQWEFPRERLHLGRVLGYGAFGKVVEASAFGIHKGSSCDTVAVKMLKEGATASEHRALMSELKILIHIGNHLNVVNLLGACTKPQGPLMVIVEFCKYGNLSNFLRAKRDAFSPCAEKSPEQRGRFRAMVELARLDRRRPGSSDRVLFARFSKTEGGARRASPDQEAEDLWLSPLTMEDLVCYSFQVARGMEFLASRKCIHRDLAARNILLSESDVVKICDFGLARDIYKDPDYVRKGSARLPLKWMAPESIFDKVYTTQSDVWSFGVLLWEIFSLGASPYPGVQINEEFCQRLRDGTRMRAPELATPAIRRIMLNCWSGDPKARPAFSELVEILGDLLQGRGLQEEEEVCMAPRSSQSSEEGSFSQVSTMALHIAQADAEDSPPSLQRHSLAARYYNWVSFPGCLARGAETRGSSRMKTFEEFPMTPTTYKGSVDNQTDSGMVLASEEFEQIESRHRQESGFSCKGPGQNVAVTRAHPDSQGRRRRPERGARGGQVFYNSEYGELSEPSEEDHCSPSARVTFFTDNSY
Receptor-interacting serine/threonine-protein kinase 3, sequence (Q9Y572 whole entry, looked up): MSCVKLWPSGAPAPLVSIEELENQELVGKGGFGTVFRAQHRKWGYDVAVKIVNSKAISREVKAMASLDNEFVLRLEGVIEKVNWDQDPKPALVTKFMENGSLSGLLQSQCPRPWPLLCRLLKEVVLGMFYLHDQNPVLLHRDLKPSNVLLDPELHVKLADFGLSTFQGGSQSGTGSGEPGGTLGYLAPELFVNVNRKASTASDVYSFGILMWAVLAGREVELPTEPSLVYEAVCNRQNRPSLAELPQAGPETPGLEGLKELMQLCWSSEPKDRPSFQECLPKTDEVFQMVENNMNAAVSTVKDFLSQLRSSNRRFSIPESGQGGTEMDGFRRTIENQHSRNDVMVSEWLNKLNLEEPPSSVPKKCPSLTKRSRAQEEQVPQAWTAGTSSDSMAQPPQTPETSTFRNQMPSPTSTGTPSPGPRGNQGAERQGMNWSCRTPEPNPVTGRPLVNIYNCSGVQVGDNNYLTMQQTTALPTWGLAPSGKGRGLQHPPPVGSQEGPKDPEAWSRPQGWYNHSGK
NT-3 growth factor receptor (Homo sapiens), sequence (Q16288 32-839 limits assumed): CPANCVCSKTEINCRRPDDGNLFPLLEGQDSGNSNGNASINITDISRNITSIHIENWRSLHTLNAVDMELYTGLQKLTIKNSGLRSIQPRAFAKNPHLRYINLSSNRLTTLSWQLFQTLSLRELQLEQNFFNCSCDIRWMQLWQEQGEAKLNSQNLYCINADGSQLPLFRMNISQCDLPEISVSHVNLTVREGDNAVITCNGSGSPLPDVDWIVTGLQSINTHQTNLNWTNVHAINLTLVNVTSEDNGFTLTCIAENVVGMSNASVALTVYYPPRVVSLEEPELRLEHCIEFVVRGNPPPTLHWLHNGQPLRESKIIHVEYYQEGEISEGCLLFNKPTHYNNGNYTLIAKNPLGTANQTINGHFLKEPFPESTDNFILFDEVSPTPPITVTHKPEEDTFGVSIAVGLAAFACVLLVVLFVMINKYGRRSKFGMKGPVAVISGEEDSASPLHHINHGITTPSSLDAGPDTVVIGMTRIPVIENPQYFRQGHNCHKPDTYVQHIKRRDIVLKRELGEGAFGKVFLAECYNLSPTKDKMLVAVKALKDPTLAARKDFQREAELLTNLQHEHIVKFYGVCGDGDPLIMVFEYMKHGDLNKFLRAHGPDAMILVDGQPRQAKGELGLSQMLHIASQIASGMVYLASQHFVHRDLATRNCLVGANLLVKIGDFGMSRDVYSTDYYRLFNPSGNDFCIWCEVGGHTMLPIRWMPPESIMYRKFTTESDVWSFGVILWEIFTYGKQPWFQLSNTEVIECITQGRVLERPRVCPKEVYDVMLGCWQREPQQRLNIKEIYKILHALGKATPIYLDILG
Vascular endothelial growth factor receptor 1 (Homo sapiens), sequence (P17948 whole entry): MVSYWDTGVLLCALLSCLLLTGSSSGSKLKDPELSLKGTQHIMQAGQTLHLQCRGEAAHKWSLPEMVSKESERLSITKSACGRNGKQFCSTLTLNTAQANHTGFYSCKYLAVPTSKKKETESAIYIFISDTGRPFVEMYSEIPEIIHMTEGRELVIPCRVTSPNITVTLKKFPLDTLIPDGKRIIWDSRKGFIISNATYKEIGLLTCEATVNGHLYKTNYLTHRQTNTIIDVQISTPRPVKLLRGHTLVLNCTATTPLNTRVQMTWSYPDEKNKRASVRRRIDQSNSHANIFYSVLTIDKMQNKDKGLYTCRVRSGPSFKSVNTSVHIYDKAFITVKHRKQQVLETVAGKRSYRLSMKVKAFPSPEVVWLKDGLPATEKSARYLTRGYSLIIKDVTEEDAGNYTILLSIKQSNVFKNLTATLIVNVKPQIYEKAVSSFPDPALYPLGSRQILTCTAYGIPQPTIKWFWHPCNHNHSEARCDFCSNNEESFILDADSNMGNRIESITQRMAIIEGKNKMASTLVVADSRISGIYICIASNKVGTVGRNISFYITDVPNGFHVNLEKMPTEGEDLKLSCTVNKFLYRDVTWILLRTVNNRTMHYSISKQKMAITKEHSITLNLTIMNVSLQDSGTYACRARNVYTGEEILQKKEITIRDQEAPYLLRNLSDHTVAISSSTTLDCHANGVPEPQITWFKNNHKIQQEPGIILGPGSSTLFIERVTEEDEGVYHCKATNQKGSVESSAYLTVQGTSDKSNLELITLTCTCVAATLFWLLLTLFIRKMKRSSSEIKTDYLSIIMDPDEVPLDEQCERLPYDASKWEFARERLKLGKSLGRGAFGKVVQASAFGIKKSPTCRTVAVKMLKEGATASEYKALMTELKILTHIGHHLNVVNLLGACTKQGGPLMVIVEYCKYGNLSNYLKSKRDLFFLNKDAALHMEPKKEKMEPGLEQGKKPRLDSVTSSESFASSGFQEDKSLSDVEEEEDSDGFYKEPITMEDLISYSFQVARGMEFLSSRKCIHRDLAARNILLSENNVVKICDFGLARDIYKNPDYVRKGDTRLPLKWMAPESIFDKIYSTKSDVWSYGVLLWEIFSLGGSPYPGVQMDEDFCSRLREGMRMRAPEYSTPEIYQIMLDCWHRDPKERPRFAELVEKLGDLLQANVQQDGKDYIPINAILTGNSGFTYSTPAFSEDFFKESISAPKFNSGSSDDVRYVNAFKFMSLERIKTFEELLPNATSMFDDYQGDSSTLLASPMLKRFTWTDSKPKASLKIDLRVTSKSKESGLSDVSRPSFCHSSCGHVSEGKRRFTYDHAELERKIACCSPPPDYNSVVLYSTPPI

inhibition [1]: Active
inhibition [3]: Tde
inhibition [4]: Active
bioavailability [5]: 59.5%
inhibition [6]: Active
Tmax [8]: 4.8 min
Tmax [9]: 4.8 min
inhibition [10]: Tde
AUC(0-t) [11]: 9640 ng·h/mL
inhibition [12]: Active
inhibition [13]: Active
inhibition [14]: Active
Vd [16]: 1.24 L/kg
inhibition [17]: Dose-Dependent Effect
Cmax [18]: 8040 ng/mL
CL/F [19]: 17.3 mL/min/kg
half-life [20]: 49.8 min
inhibition [21]: Active
Structure (SMILES): CC1(Cn2cc(-c3ccc4c(c3)CCN4C(=O)Cc3cccc(OC(F)(F)F)c3)c3c(N)n[nH]c(=O)c32)COC1
EC50 (L929): 1.06 nM
Activity (HT-29 [2]): Active
Activity (Mus musculus [7]): Active
EC50 (HT-29 [15]): 4.58 nM
Activity (Mus musculus [22]): Dose-Dependent Effect
